± gives the standard deviation of the averaged measurements.
Assays:
Details in all cases: 72 h
MV4-11 [1] = test system: MV4-11
Method in brief: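 The IC50 was read from log-logistic dose–response fits. Fifteen myeloid leukaemia lines were exposed for 72 h at 37 °C with 5% CO2 to five tenfold doses from 1 to 10,000 nM in duplicate. ATP luminescence, normalised to vehicle and to a 10 µM positive control, was fitted with four parameters.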

KG-1 = assay: cell viability (% survival relative to DMSO control, bortezomib = 0%); higher = less cytotoxic
Method in brief: (§1)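 Fifteen myeloid leukaemia cell lines (10 AML, 5 CML) were seeded at a density titrated to the linear growth range. They went into 384-well plates with compounds pre-printed at 1, 10, 100, 1000 or 10000 nM in duplicate. After 72 h at 37 °C with 5% CO2, viability was read by CellTiter-Glo luminescence. Values are percent survival, with vehicle set to 100% and a 10 µM positive control to 0%, averaged over the duplicates.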

K-562 = assay: as above
Method in brief: as §1

LAMA-84 = assay: as above
Method in brief: as §1

MOLM-13 = assay: as above
Method in brief: as §1

KU-812 = assay: as above
Method in brief: as §1

KCL-22 = assay: as above
Method in brief: as §1

NOMO-1 = assay: as above
Method in brief: as §1

HEL = assay: as above
Method in brief: as §1

SHI-1 = assay: as above
Method in brief: as §1

Mono-Mac-6 = assay: as above
Method in brief: as §1

BV-173 = assay: as above
Method in brief: as §1

HL-60 [2] = assay: as above
Method in brief: as §1

ML-2 = assay: as above
Method in brief: as §1

MV4-11 [3] = assay: as above
Method in brief: as §1

THP-1 = assay: as above
Method in brief: as §1

HL-60 [4] = assay: area under dose-response curve (viability, 1 nM-10 uM) (fraction (0-1)); higher = more sensitive
Method in brief: (§2)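 HL-60 cells in RPMI 1640 with 10% FBS were rescreened against the full library on 384-well plates at five tenfold concentrations, 1–10,000 nM, in duplicate. Each screen was run with DMSO or 100 nM of one of three metabolic inhibitors, for 72 h at 37 °C, 5% CO2. Viability was read by CellTiter-Glo and normalised to DMSO and 10 μM proteasome-inhibitor wells. Where given, area under the curve came from four-parameter log-logistic fits (drc, PharmacoGx).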

HL-60 [5] = assay: cell viability (% survival relative to DMSO control); higher = less cytotoxic
Method in brief: as §2

CC(=O)N1CCN(c2ccc(OC[C@@H]3CO[C@@](Cn4ccnc4)(c4ccc(Cl)cc4Cl)O3)cc2)CC1 (racemic) [Ketoconazole]
Details | IC50 (cell viability) [µM]
MV4-11 [1] | > 10

Details | area under dose-response curve, co-treatment: AZD3965 100 nM | area under dose-response curve, co-treatment: DMSO vehicle | area under dose-response curve, co-treatment: GSK2194069 100 nM | area under dose-response curve, co-treatment: pictilisib 100 nM | cell viability, 1 nM [%] | cell viability, 10 nM [%] | cell viability, 100 nM [%] | cell viability, 1000 nM [%] | cell viability, 10000 nM [%]
BV-173 | – | – | – | – | 90.8 | 78.3 | 100 | 92.6 | 78.8
HEL | – | – | – | – | 104 | 105 | 94.1 | 112 | 67.2
HL-60 [2] | – | – | – | – | 104 | 109 | 97.8 | 112 | 75.5
HL-60 [4] | < 0.0301 | < 0.0301 | < 0.0301 | < 0.0301 | – | – | – | – | –
K-562 | – | – | – | – | 98.6 | 95.2 | 97.3 | 91.8 | 95.8
KCL-22 | – | – | – | – | 98.4 | 117 | 101 | 103 | 44.1
KG-1 | – | – | – | – | 97.5 | 105 | 90.9 | 93.7 | 42.9
KU-812 | – | – | – | – | 100 | 102 | 95.1 | 105 | 70.5
LAMA-84 | – | – | – | – | 104 | 97.9 | 96.3 | 96.7 | 82.6
ML-2 | – | – | – | – | 97.8 | 113 | 90.8 | 101 | 69.9
MOLM-13 | – | – | – | – | 92.5 | 110 | 100 | 104 | 88.1
MV4-11 [3] | – | – | – | – | 92.5 | 94.3 | 102 | 98.2 | 54.7
Mono-Mac-6 | – | – | – | – | 93.6 | 91.8 | 95.6 | 94 | 90.1
NOMO-1 | – | – | – | – | 102 | 95.5 | 100 | 99.8 | 99.5
SHI-1 | – | – | – | – | 104 | 113 | 96.3 | 114 | 97.5
THP-1 | – | – | – | – | 105 | 95.9 | 97.4 | 104 | 91.1

cell viability [%], HL-60 [5]
Details | 0.001 µM | 0.01 µM | 0.1 µM | 1 µM | 10 µM
co-treatment: AZD3965 100 nM | 98.3 ± 5 | 95.6 ± 8.3 | 105 ± 4.2 | 109 ± 11 | 96.1 ± 8.6
co-treatment: DMSO vehicle | 99.7 ± 1.4 | 96.9 ± 3.1 | 104 ± 3 | 104 ± 0.52 | 102.6 ± 0.17
co-treatment: GSK2194069 100 nM | 100 ± 3.6 | 78.8 ± 21 | 109 ± 12 | 110 ± 14 | 95.6 ± 2.4
co-treatment: pictilisib 100 nM | 88.8 ± 17 | 95.03 ± 0.18 | 106 ± 18 | 111 ± 10 | 102 ± 1.4

CNC(=C[N+](=O)[O-])NCCSCc1ccc(CN(C)C)o1 [Ranitidine]
Details | IC50 (cell viability) [µM]
MV4-11 [1] | > 10

Details | area under dose-response curve, co-treatment: AZD3965 100 nM | area under dose-response curve, co-treatment: DMSO vehicle | area under dose-response curve, co-treatment: GSK2194069 100 nM | area under dose-response curve, co-treatment: pictilisib 100 nM | cell viability, 1 nM [%] | cell viability, 10 nM [%] | cell viability, 100 nM [%] | cell viability, 1000 nM [%] | cell viability, 10000 nM [%]
BV-173 | – | – | – | – | 96.7 | 96.1 | 105 | 96.9 | 108
HEL | – | – | – | – | 113 | 104 | 107 | 104 | 92.4
HL-60 [2] | – | – | – | – | 98.1 | 156 | 97.5 | 95.5 | 121
HL-60 [4] | < 0.0301 | < 0.0301 | < 0.0301 | < 0.0301 | – | – | – | – | –
K-562 | – | – | – | – | 108 | 92.1 | 93.5 | 97.3 | 103
KCL-22 | – | – | – | – | 100 | 101 | 103 | 109 | 92.9
KG-1 | – | – | – | – | 104 | 85.8 | 126 | 174 | 163
KU-812 | – | – | – | – | 109 | 101 | 97.4 | 96.8 | 107
LAMA-84 | – | – | – | – | 107 | 89.3 | 105 | 104 | 102
ML-2 | – | – | – | – | 97.4 | 113 | 101 | 100 | 98.9
MOLM-13 | – | – | – | – | 97.9 | 94.2 | 91.6 | 102 | 117
MV4-11 [3] | – | – | – | – | 98.5 | 109 | 108 | 114 | 104
Mono-Mac-6 | – | – | – | – | 94.6 | 96.6 | 115 | 95.6 | 113
NOMO-1 | – | – | – | – | 96.3 | 96.2 | 108 | 98.7 | 101
SHI-1 | – | – | – | – | 98.6 | 107 | 96.4 | 122 | 104
THP-1 | – | – | – | – | 105 | 103 | 98.2 | 99.6 | 102

cell viability [%], HL-60 [5]
Details | 0.001 µM | 0.01 µM | 0.1 µM | 1 µM | 10 µM
co-treatment: AZD3965 100 nM | 103 ± 2.5 | 102 ± 2.5 | 99.6 ± 4.2 | 107 ± 8.7 | 100 ± 3
co-treatment: DMSO vehicle | 104 ± 0.67 | 87.7 ± 16 | 105.91 ± 0.021 | 106.4 ± 0.2 | 96.1 ± 5.9
co-treatment: GSK2194069 100 nM | 94.3 ± 10 | 89.5 ± 1.4 | 108 ± 12 | 106 ± 12 | 102 ± 4.1
co-treatment: pictilisib 100 nM | 95.9 ± 16 | 70.3 ± 19 | 98.5 ± 5.1 | 110 ± 11 | 96.9 ± 4.7

Cc1nc(-c2ccc(OCC(C)C)c(C#N)c2)sc1C(=O)O [Febuxostat]
Details | IC50 (cell viability) [µM]
MV4-11 [1] | > 10

Details | area under dose-response curve, co-treatment: AZD3965 100 nM | area under dose-response curve, co-treatment: DMSO vehicle | area under dose-response curve, co-treatment: GSK2194069 100 nM | area under dose-response curve, co-treatment: pictilisib 100 nM | cell viability, 1 nM [%] | cell viability, 10 nM [%] | cell viability, 100 nM [%] | cell viability, 1000 nM [%] | cell viability, 10000 nM [%]
BV-173 | – | – | – | – | 103 | 101 | 79.9 | 99.7 | 82.6
HEL | – | – | – | – | 97 | 97.8 | 106 | 105 | 84.5
HL-60 [2] | – | – | – | – | 103 | 85.2 | 114 | 91.3 | 99.3
HL-60 [4] | 0.0351 | < 0.0301 | < 0.0301 | 0.0462 | – | – | – | – | –
K-562 | – | – | – | – | 100 | 91.3 | 84.2 | 113 | 87.7
KCL-22 | – | – | – | – | 92.5 | 103 | 98 | 104 | 80.1
KG-1 | – | – | – | – | 102 | 97.5 | 103 | 94.6 | 90.4
KU-812 | – | – | – | – | 101 | 97.3 | 94 | 98.4 | 83.9
LAMA-84 | – | – | – | – | 102 | 95.7 | 92.4 | 105 | 101
ML-2 | – | – | – | – | 94 | 96 | 100 | 90.2 | 86.8
MOLM-13 | – | – | – | – | 90.6 | 102 | 141 | 103 | 94.9
MV4-11 [3] | – | – | – | – | 88.2 | 104 | 99.1 | 105 | 116
Mono-Mac-6 | – | – | – | – | 91.7 | 102 | 99 | 92.9 | 92.7
NOMO-1 | – | – | – | – | 96.3 | 97.7 | 98.5 | 99.6 | 93.1
SHI-1 | – | – | – | – | 87 | 97.7 | 99 | 99.4 | 93.8
THP-1 | – | – | – | – | 102 | 92.4 | 95.1 | 99.6 | 93.6

cell viability [%], HL-60 [5]
Details | 0.001 µM | 0.01 µM | 0.1 µM | 1 µM | 10 µM
co-treatment: AZD3965 100 nM | 96.8 ± 1 | 104 ± 1.1 | 104 ± 1.4 | 98.3 ± 3 | 98.16 ± 0.3
co-treatment: DMSO vehicle | 96.5 ± 3.3 | 99.3 ± 3.9 | 103 ± 5.2 | 95.6 ± 1.8 | 104.8 ± 0.8
co-treatment: GSK2194069 100 nM | 99.9 ± 2.2 | 93.2 ± 8 | 94.47 ± 0.83 | 95.2 ± 2.4 | 98.7 ± 3.6
co-treatment: pictilisib 100 nM | 98.2 ± 2.1 | 100 ± 2.6 | 107 ± 7.7 | 95.4 ± 1.8 | 96 ± 4.1
